Measurements from PMC12163635, “Synthetic Retinoids for the Modulation of Genomic and Nongenomic Processes in Neurodegenerative Diseases” (ACS Omega, 2025).

What was measured:
[1] = target: T1, RARα (Homo sapiens, UniProt P10276); experiment: Fluorescence competition binding assay (displacement of DC271); conditions: for Kd / Binding KD (± SD) RARα: 100 nM RAR and DC271 on plate; for Kd: read-out: Binding KD (± SD) RARα; for ΔGEXP RARα: experimental binding free energy from K D, ΔGexp=−RT ln K, 298.1 K
T1 construct: His6-3C-NusA (cleaved yes); made in house; host or cells: E. coli BL21(DE3), pET50b vector
T1 sequence (P10276 183-417 limits assumed): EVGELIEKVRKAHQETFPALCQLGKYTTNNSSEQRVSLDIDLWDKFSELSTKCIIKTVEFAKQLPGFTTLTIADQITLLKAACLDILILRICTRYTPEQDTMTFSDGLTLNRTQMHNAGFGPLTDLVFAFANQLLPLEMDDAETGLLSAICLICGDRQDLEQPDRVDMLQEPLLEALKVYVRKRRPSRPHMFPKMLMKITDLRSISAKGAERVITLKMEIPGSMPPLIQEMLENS
Method: (§1) Fluorescence competition assays were employed to determine the relative binding affinities of each synthetic retinoid toward the LBD of the RARs. The assay is based on the potential for competitive displacement of the inherently fluorescent retinoid DC271 from the LBP by a test nonfluorescent synthetic retinoid. Changes in the fluorescence were measured following the addition of a serial dilution of the test compound and the results were plotted to generate a binding curve. […] Assays were performed for both RARα and RARγ. […] Nonlinear least-squares regression analyses were performed to calculate binding affinities and reported as binding K D, the equilibrium dissociation constant between the RAR isoform and the test synthetic retinoid.
(§2) RARα/γ proteins were expressed in BL21(DE3) cells (NEB) transformed into pET50b (Novagen) and pOPINS3C vectors, respectively, carrying the gene construct and containing a His6-3C-NusA tag or His6-3C-SUMO tag used for solubility. Transformations were carried out under standard conditions using Quick Transformation Protocol (New England Biolabs). Successful transformants were grown overnight in 2xYT media (Melford) and frozen for storage at −80 °C in 50% glycerol. Expression cultures were inoculated from glycerol stocks into 25 mL of 2xYT media (Melford) with 50 μg/mL kanamycin or 100 μg/mL ampicillin (Sigma-Aldrich) and grown overnight with shaking (37 °C, 150 rpm). The overnight cultures were transferred into 1 L expression flasks (2xYT/ampicillin 100 μg/mL or 2xYT/kanamycin 50 μg/mL) and grown with shaking at 37 °C, 150 rpm. Induction was carried out at an OD600 of 0.6–0.8, with 1 mL of 1 M IPTG (1 mM in culture), before shaking overnight (20 h) at 18 °C. The resulting cultures were spun down into pellets using an Avanti Hi-Speed centrifuge (JLA 8.1000, 4000 rpm, 30 min, 4 °C), before the supernatant was removed and the bacterial pellet were frozen at −80 °C.
(§3) RARα/γ (pET50b or pOPINS3C, BL21(DE3) (NEB)) were resuspended from pellet with 20 mL Wash Buffer (20 mM Tris-HCl, 300 mM NaCl and 20 mM imidazole, pH 8) and the resulting suspension was sonicated on ice (40% power, 2 min, repeated twice with 1 min rest in-between) before centrifuging (Avanti Hi-Speed JA25.50, 20,000 rpm, 1 h, 4 °C). Supernatants were clarified using 0.45 μm syringe filters (Thermo Fisher Scientific). Affinity chromatography and size-exclusion (SEC) chromatography were carried out on AKTA Pure25 (Cytiva). Supernatants were loaded onto the HisTrap HP column (5 mL, Cytiva) and washed using 25 mL of wash Buffer. The column was washed with Wash Buffer until UV trace returned to baseline, before RARα/γ was eluted using a gradient of Elution Buffer (20 mM Tris-HCl, 300 mM NaCl, 500 mM imidazole pH 8). The resulting protein-containing fractions were analyzed by SDS-PAGE (200 V, 30 min) using SurePAGE Bis-Tris 12% precast gels (Genscript). Protein concentrations were estimated using absorbance at 280 nm on a DS-11 spectrophotometer (Denovix) with calculated molecular weights and extinction coefficients (Expasy). RAR proteins were cleaved overnight from 3C-NusA tag or 3C-SUMO-His tag using 1 Unit/100 μg protein of HRV3C protease (Thermo Fisher Scientific) at 4 °C. Solution after digestion was loaded onto a HiLoad 16/600 Superdex 75 prep-grade column (Cytiva) and cleaved RARα/γ was separated from the tag based on molecular weight and eluted from the column using SEC Buffer (20 mM Tris-HCl, 300 mM NaCl and 0.5 mM TCEP, pH 8) into 2 mL fractions. The resulting protein fractions were analyzed by SDS PAGE (200 V, 30 min) using SurePAGE Bis-Tris 12% precast gels (Genscript), before being concentrated to 5 mg/mL using centrifugal concentrators (Sartorius) and frozen at −80 °C in small aliquots for use in binding assays.

[2] = tested on: RARα; experiment: as above; parameters: species or system human; conditions: log-log plot of K D for RARα and RARγ
Sequence of RARα (P10276 182-417): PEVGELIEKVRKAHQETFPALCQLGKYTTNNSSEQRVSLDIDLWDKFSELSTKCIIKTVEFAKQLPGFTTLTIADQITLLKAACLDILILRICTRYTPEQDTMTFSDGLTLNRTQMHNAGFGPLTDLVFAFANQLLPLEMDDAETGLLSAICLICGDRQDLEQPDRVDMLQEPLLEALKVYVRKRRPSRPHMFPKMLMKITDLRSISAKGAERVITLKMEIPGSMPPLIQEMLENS
Method: as §1, §2, §3

[3] = tested on: ERK1/2 phosphorylation in SH-SY5Y cells; experiment: ERK1/2 phosphorylation (nongenomic response), AlphaScreen SureFire; format: cell-based, human; parameters: nongenomic response Emax (±95% CI): unit not given here; conditions: for EC50: Homo sapiens, read-out: nongenomic response EC50 (±95% CI); for nongenomic E max compared with ATRA: nonoverlapping 95% CI
Method: After screening the retinoids for genomic responses, they were tested for their nongenomic ability to rapidly phosphorylate ERK1/2 in the SH-SY5Y cell line. ATRA is known as a potent activator of ERK1/2 − and was used as the standard for comparison. […] The efficacies of the remaining seven retinoids were similar to ATRA.
SH-SY5Y cell line as used in ERK phosphorylation and neurite outgrowth assays described below. The cells were grown in DMEM containing 10% FCS at 37 °C with 5% CO2. The medium was changed three times a week and the cells were passaged at 70% confluence using 0.05% trypsin-EDTA.
To quantify ERK1/2 phosphorylation, SH-SY5Y cells (100,000 cells/well) were plated onto 96-well plates and serum-starved for 24 h in DMEM. Cells were assayed in serum-free DMEM and stimulated for 60 min at 37 °C in a humidified atmosphere. Retinoids were tested at concentrations ranging from 10 to 4 to 10–11 M and at a final concentration of 0.1% DMSO. At the end of the assay, the medium was removed, and cells were lysed with lysis buffer supplied in the AlphaScreen SureFire ERK1/2 kit (PerkinElmer). The assay was performed in 384-well white Proxiplates according to the manufacturer’s instructions and using the beads supplied in the protein A general IgG detection kit (PerkinElmer). Briefly, 4 μL samples were incubated with 7 μL of the freshly prepared mixture containing donor and acceptor beads. Plates were incubated at room temperature and read with the Envision system (PerkinElmer Life Sciences) using AlphaScreen settings.
All data are presented as mean ± SEM of three independent experiments with biological triplicates. Statistical analyses were performed in Microsoft Office Excel 2019 or GraphPad Prism 7.0c version (Prism, GraphPad Software, San Diego, CA). Neurite outgrowth data were analyzed by one-way ANOVA with Newman-Keuls multiple comparison test as appropriate; P value <0.05 was considered statistically significant. *P < 0.05, **P < 0.01. Data for X-Gal and ERK1/2 phosphorylation were analyzed using sigmoidal dose–response analysis of log (agonist) versus response curve (stimulation).

SMILES	Kd [1]	ΔGEXP RARα [1]	binding preference RARα versus RARγ (from K D) [2]	EC50 ([3]; SH-SY5Y cells, 1 h)	nongenomic response Emax (±95% CI) ([3]; SH-SY5Y cells, 1 h)	nongenomic E max compared with ATRA [3]	Binding KD (± SD) RARα [1]	induction of ERK1/2 phosphorylation (nongenomic activity) ([3]; SH-SY5Y cells, 1 h)
Cc1cc2c(cc1C#Cc1cc(F)c(C(=O)O)c(F)c1)C(C)(C)CCC2(C)C [Compound 19, 2,6-Difluoro-4-[2-(3,5,5,8,8-pentamethyl-5,6,7,8-tetrahydronaphthalen-2-yl)ethynyl]benzoic Acid]	5.72 nM	-11.3 kcal/mol	bind RARα preferentially over RARγ	144 nM	77.6 (±2.92)	E max values significantly higher than ATRA	–	–
COc1cc2c(cc1C#Cc1ncc(C(=O)O)cn1)C(C)(C)CCC2(C)C [Compound 29, 2-[2-(3-Methoxy-5,5,8,8-tetramethyl-5,6,7,8-tetrahydronaphthalen-2-yl)ethynyl]pyrimidine-5-carboxylic Acid]	–	Non-competitive Binding	–	87.4 nM	37.5 (±2.12)	E max values significantly lower than ATRA	noncompetitive binding	–
Cc1cc2c(cc1C#Cc1ccc(C(=O)O)c(F)c1)C(C)(C)CCC2(C)C [Compound 17, 2-Fluoro-4-[2-(3,5,5,8,8-pentamethyl-5,6,7,8-tetrahydronaphthalen-2-yl)ethynyl]benzoic Acid]	28.4 nM	-10.40 kcal/mol	close to the plotted line representing equal binding affinity for RARα and RARγ	5.73 nM	44.1 (±2.69)	–	–	–
CC1(C)CCC(C)(C)c2nc(C#Cc3ccc(C(=O)O)cc3F)cnc21 [Compound 31, 3-Fluoro-4-[2-(5,5,8,8-tetramethyl-5,6,7,8-tetrahydroquinoxalin-2-yl)ethynyl]benzoic Acid]	203 nM	-9.13 kcal/mol	bind RARγ stronger than RARα	58.4 nM	91.6 (±3.84)	E max values significantly higher than ATRA	–	–
CC1(C)CCC(C)(C)c2cc(C#Cc3ccc(C(=O)O)cc3Cl)ccc21 [Compound 16, 3-Chloro-4-[2-(5,5,8,8-tetramethyl-5,6,7,8-tetrahydronaphthalen-2-yl)ethynyl]benzoic Acid]	73.7 nM	-9.79 kcal/mol	bind RARγ stronger than RARα	90.8 nM	36.9 (±2.77)	E max values significantly lower than ATRA	–	–
CC1(C)CCC(C)(C)c2cc(C#Cc3ccc(C(=O)O)cn3)ccc21 [Compound 23, 6-[2-(5,5,8,8-Tetramethyl-5,6,7,8-tetrahydronaphthalen-2-yl)ethynyl]pyridine-3-carboxylic Acid]	15.8 nM	-10.7 kcal/mol	close to the plotted line representing equal binding affinity for RARα and RARγ	23.9 nM	85.7 (±9.23)	–	–	showed activity toward the nongenomic pathway
Cc1sc(-c2ccc(C(=O)O)cc2)nc1-c1ccc2c(c1)C(C)(C)CCC2(C)C [GZ25, reference compound]	688 nM	-7.92 kcal/mol	–	3.57 nM	76.6 (±2.61)	E max values significantly higher than ATRA	–	–
Cc1sc(-c2ccc(C(=O)O)cn2)nc1-c1cnc2c(n1)C(C)(C)CCC2(C)C [Compound 41, 6-[5-Methyl-4-(5,5,8,8-tetramethyl-5,6,7,8-tetrahydroquinoxalin-2-yl)-1,3-thiazol-2-yl]pyridine-3-carboxylic Acid]	–	Non-competitive Binding	–	15.4 nM	55.26 (±0.00)	E max values significantly higher than ATRA	noncompetitive binding	–
CC1(C)CCC(C)(C)c2cc(C#Cc3cnc(C(=O)O)cn3)ccc21 [Compound 25, 5-[2-(5,5,8,8-Tetramethyl-5,6,7,8-tetrahydronaphthalen-2-yl)ethynyl]pyrazine-2-carboxylic Acid]	927 nM	-8.23 kcal/mol	–	20.7 nM	27.9 (±1.66)	E max values significantly lower than ATRA	–	–
